Measured values as given in publication PMC5516028, “Molecular tools for GABAA receptors: High affinity ligands for β1-containing subtypes” (Scientific Reports, 2017).
Several values for one entry are separate records, joined by “and”; a condition that tells them apart may be missing. Equal entries are not always repeated. Where two headings read alike, the source gives them in different places.

What was measured:
Assay type in all cases: cell-based
[1] = molecular target: T1, α2β3γ2 GABAA receptors (Rattus norvegicus, UniProt P23576+P63079); assay: Two electrode voltage clamp in Xenopus laevis oocytes, α2β3γ2
T1 construct: expressed in transfected cells; host or cells: Xenopus laevis oocytes, mRNA injected
T1 sequence (P23576 29-451): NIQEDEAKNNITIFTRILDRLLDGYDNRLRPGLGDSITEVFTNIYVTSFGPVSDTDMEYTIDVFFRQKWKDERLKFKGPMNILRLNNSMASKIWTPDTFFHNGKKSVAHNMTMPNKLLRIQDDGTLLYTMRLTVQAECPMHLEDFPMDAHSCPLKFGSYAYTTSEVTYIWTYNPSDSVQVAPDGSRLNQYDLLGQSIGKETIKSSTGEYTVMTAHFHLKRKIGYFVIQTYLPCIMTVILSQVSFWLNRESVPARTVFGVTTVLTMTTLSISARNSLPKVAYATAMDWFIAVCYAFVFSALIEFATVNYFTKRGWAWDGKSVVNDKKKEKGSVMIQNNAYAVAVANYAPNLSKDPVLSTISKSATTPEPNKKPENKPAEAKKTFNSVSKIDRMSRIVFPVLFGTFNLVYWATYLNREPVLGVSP
T1 sequence (P63079 26-473): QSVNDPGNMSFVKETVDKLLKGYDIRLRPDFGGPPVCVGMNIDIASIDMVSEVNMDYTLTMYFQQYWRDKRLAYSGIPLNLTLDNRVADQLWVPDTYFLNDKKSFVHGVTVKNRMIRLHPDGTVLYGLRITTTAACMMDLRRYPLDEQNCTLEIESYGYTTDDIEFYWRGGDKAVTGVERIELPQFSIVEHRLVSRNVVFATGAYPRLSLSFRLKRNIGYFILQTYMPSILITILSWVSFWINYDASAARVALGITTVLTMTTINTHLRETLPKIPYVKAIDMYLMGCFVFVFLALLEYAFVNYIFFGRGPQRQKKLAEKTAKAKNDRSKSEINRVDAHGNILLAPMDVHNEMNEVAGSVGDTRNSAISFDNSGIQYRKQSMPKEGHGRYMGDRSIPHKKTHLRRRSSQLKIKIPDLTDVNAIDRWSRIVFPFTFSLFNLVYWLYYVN
T1 sequence (P18508 39-466 partner): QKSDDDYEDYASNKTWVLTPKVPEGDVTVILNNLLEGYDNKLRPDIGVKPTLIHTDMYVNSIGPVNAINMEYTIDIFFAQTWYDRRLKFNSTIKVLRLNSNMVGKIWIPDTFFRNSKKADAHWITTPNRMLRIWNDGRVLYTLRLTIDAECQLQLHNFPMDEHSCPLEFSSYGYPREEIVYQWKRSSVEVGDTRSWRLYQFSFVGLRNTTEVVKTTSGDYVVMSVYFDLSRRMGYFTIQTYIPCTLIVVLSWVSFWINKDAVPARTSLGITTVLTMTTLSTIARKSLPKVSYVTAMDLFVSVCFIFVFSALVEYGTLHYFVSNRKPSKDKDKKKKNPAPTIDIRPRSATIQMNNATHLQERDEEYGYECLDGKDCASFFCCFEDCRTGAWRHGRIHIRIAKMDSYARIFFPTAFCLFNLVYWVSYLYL
Text: (§1) cDNA’s of rat GABAA receptor subunits α1, α4, β1, β2, β3 and γ2S were cloned as described. cDNAs of the rat subunits α2, α3 and α5 were gifts from P. Malherbe, that of α6 and γ1 were gifts of P. Seeburg and that of δ was a gift of C. Czajkowski. The mutants were constructed using the Q5 Site-Directed Mutagenesis Kit (New England Biolabs) following manufacturer’s instruction. We used the wild-type rat β3-pCI vector as template and the primers […] and […] resulting in a substitution of amino acid N41 (AAC) to R (AGG). We used the wild-type rat β1-pCI vector as template and the primers […] and […] resulting in a substitution of amino acid R41 (CGG) to N (AAC). The mutated subunits were confirmed by sequencing.
(§2) In vitro transcription of mRNA was based on the cDNA expression vectors encoding for rat GABAA receptor subunits α1–6, β1-3, γ1,2, δ and the two β mutants (β1R41N and β3N41R)[40]. After linearizing the cDNA vectors with appropriate restriction endonucleases, the cDNA was purified and concentrated with the DNA Clean and Contentrator ^TM Kit (Zymoresearch, Catalog No. D4005). Capped transcripts of the purified cDNA were produced using the mMESSAGE mMACHINE® T7 transcription kit (Ambion, TX, USA) and polyadenylated using the Ambion PolyA tailing kit (Ambion). After transcription and polyadenylation the RNA was purified with the MEGAclear ^TM Kit (Ambion, Catalog No. AM1908). The final RNA concentration was measured on NanoDrop® ND-1000 and finally diluted and stored in diethylpyrocarbonate-treated water at −80 °C. For the microinjection, the RNA of αβ receptor combinations was mixed at 1:1 ratio (which leads to αβ receptors that consist of predominantly 3 beta and 2 alpha subunits[27]), for αkβlγm (k = 1–3, l = 1, 3, m = 1, 2) receptors at 1:1:5 ratio, for αkβ3γ2 (k = 4–6) and αkβlδ (k = 1, 4 and 6, l = 1, 3) receptor combinations at 3:1:5 ratio.
(§3) Mature female Xenopus laevis (Nasco, WI) were anesthetized in a bath of ice-cold 0.17% Tricain (Ethyl-m-aminobenzoate, Sigma, MO) before decapitation in full accordance with all rules of the Austrian animal protection law (see http://www.ris.bka.gv.at/Dokumente/BgblAuth/BGBLA_2012_I_114/BGBLA_2012_I_114.pdf) and the Austrian animal experiment by-laws (see https://www.ris.bka.gv.at/Dokumente/BgblAuth/BGBLA_2012_II_522/BGBLA_2012_II_522.pdf) which implement the European Directive 2010/63/EU (see http://eur-lex.europa.eu/LexUriServ/LexUriServ.do?uri=OJ:L:2010:276:0033:0079:en:PDF) into the Austrian law (all information accessed on July 27, 2016). The frog’s ovaries were transferred to ND96 medium (96 mM NaCl, 2 mM KCl, 1 mM MgCl2, 5 mM HEPES; pH 7.5). Stage 5–6 oocytes with the follicle cell layer around them were roughly dissected with forceps into packages of 10–15 cells and washed in Ca^2+-free ND96 medium. Cells were then digested with collagenase (type IA, Sigma, NO, 1 mg/mL ND96) at 18 °C shaking at 30 rpm for 30–60 minutes and gently defolliculated with the aid of a glass pipette with appropriate tip diameter and a platinum loop. Defolliculated cells were stored at 18 °C for at least 6 hours in ND96 solution containing penicillin G (10000 IU/100 mL) and streptomycin (10 mg/100 mL) in order to preselect and exclude damaged cells from further treatment. Healthy defolliculated oocytes were injected with an aqueous solution of mRNA. A total of 4.5 ng of mRNA per oocyte was injected with a Nanoject II (Drummond). After injection of mRNA, oocytes were incubated at 18 °C (ND96 + antibiotic) for 2–3 days for αβ receptors and for 3–4 days for αβγ or αβδ receptors before recording. When cells were measured at later time points, oocytes were stored at +4 °C instead of 18 °C.
(§4) For electrophysiological recordings, oocytes were placed on a nylon-grid in a bath of Ca^2+-containing NDE solution medium [96 mM NaCl, 5 mM HEPES-NaOH (pH 7.5), 2 mM KCl, 1 mM MgCl2, 1.8 mM CaCl2].

[2] = molecular target: T2, α1β2 GABAA receptors (Rattus norvegicus, UniProt P62813+P63138); assay: Two electrode voltage clamp in Xenopus laevis oocytes, α1β2
T2 construct: expressed in transfected cells; host or cells: Xenopus laevis oocytes, mRNA injected
T2 sequence (P62813 28-455): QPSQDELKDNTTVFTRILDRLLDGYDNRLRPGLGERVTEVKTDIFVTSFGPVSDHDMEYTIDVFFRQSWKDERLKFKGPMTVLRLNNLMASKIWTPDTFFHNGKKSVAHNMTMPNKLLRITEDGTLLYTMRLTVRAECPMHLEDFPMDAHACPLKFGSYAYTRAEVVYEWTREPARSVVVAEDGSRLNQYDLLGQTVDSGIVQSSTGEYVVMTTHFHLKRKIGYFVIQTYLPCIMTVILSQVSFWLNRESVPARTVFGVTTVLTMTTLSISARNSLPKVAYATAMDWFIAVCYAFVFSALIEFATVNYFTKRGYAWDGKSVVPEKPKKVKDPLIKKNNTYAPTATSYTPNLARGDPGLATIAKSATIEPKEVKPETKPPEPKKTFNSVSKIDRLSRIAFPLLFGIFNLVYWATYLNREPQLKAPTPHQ
T2 sequence (P63138 25-474 limits assumed): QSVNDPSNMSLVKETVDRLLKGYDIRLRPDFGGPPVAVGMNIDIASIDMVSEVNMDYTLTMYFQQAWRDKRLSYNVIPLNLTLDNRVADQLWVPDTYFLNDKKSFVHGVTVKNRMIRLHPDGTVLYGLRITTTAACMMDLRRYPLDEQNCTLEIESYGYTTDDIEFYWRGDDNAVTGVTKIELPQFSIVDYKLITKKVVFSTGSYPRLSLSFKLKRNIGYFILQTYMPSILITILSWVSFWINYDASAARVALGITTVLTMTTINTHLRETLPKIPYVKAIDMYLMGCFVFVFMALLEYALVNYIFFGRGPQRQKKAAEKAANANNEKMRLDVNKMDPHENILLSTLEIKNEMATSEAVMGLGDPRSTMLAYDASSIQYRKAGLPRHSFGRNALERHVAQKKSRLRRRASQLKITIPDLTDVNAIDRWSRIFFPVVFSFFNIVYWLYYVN
Text: as §1, §2, §3, §4

[3] = molecular target: T3, α1β3N41R GABAA receptors (Rattus norvegicus, UniProt P62813+P63079, N66R); assay: Two electrode voltage clamp in Xenopus laevis oocytes, mutant α1β3N41R; conditions: co-applied with GABA EC3-5, read-out: EC50 values for the mutated receptors
T3 construct: expressed in transfected cells; host or cells: Xenopus laevis oocytes, mRNA injected
T3 sequence (P62813 28-455): as the sequence (P62813 28-455) above
T3 sequence (P63079 26-473 N66R): as the sequence (P63079 26-473) above, with N41R counted along it
Text: as §1, §2, §3, §4

[4] = molecular target: T4, α1β1 GABAA receptors (Rattus norvegicus, UniProt P15431+P62813); assay: Two electrode voltage clamp in Xenopus laevis oocytes, α1β1; conditions: for EC50: read-out: EC50
T4 construct: expressed in transfected cells; host or cells: Xenopus laevis oocytes, mRNA injected
T4 sequence (P62813 28-455): as the sequence (P62813 28-455) above
T4 sequence (P15431 26-474): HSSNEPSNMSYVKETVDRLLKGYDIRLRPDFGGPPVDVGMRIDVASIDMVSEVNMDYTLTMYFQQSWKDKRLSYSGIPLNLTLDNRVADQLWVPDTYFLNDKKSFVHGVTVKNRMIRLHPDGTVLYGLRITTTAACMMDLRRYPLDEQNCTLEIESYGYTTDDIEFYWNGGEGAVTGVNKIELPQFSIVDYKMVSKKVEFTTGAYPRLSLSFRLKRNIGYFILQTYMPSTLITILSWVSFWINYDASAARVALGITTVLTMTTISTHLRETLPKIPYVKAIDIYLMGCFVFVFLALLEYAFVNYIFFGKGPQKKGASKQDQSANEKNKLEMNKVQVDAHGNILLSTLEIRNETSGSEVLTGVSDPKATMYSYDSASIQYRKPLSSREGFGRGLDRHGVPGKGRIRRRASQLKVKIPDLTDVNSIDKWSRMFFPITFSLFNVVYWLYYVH
Text: as §1, §2, §3, §4

[5] = molecular target: T5, α4β3γ2 GABAA receptors (Rattus norvegicus, UniProt P28471+P63079); assay: Two electrode voltage clamp in Xenopus laevis oocytes, α4β3γ2
T5 construct: expressed in transfected cells; host or cells: Xenopus laevis oocytes, mRNA injected
T5 sequence (P28471 36-552): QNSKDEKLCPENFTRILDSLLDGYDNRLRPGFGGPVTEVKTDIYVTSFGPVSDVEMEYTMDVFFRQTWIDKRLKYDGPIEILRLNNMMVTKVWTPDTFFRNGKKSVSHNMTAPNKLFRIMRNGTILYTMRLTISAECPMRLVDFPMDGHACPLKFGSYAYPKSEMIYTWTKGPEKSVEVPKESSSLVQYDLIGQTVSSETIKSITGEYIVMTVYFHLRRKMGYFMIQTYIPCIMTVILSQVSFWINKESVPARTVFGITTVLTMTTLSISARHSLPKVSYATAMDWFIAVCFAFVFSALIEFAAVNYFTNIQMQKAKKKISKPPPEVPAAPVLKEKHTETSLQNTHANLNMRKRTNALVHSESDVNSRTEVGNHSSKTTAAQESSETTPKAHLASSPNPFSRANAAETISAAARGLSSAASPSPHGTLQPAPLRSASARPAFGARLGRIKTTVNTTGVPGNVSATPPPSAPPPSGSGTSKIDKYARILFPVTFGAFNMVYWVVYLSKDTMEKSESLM
T5 sequence (P63079 26-473): as the sequence (P63079 26-473) above
T5 sequence (P18508 39-466 partner): as the sequence (P18508 39-466 partner) above
Text: as §1, §2, §3, §4

[6] = molecular target: T6, α1β3 GABAA receptors (Rattus norvegicus, UniProt P62813+P63079); assay: Two electrode voltage clamp in Xenopus laevis oocytes, α1β3
T6 construct: expressed in transfected cells; host or cells: Xenopus laevis oocytes, mRNA injected
T6 sequence (P62813 28-455): as the sequence (P62813 28-455) above
T6 sequence (P63079 26-473): as the sequence (P63079 26-473) above
Text: as §1, §2, §3, §4

[7] = molecular target: T7, α1β1R41N GABAA receptors (Rattus norvegicus, UniProt P15431+P62813, R66N); assay: Two electrode voltage clamp in Xenopus laevis oocytes, mutant α1β1R41N; conditions: read-out: % of control current at EC3-5
T7 construct: expressed in transfected cells; host or cells: Xenopus laevis oocytes, mRNA injected
T7 sequence (P62813 28-455): as the sequence (P62813 28-455) above
T7 sequence (P15431 26-474 R66N): as the sequence (P15431 26-474) above, with R41N counted along it
Text: as §1, §2, §3, §4

SMILES: Nc1ccc(-n2nc3c4cc(Cl)ccc4[nH]cc-3c2=O)cc1 [Compound 3, 8-Chloro-2-(4-aminophenyl)-2H-pyrazolo[4,3-c]quinolin-3(5H)-one]
- EC50 [1]: > 10 µM
- activity at 0.01 µM ([1]; read-out: efficacy, % of control current (GABA EC3-5 = 100%), α2β3γ2, 10 nM): 103 ± 3.2%
- activity at 0.1 µM ([1]; read-out: efficacy, % of control current (GABA EC3-5 = 100%), α2β3γ2, 100 nM): 103 ± 3.2%
- activity at 1 µM ([1]; read-out: efficacy, % of control current (GABA EC3-5 = 100%), α2β3γ2, 1 µM): 106 ± 2.2%
- activity at 10 µM ([1]; read-out: efficacy, % of control current (GABA EC3-5 = 100%), α2β3γ2, 10 µM): 124 ± 4.1%
- EC50 [2]: 1050 nM
- activity at 30 µM ([2]; read-out: efficacy, % of control current (GABA EC3-5 = 100%), α1β2, 30 µM): 106 ± 11.4%
- Hill slope (nH) ([2]; α1β2): 2.0±0.7
- EC50 [3]: 200 nM
- activity at 0.01 µM ([4]; read-out: efficacy, % of control current (GABA EC3-5 = 100%), α1β1, 10 nM): 116 ± 3.6%
- activity at 0.3 µM ([4]; read-out: efficacy, % of control current (GABA EC3-5 = 100%), α1β1, 300 nM): 299 ± 29.7%
- activity at 10 µM ([4]; read-out: efficacy, % of control current (GABA EC3-5 = 100%), α1β1, 10 µM): 403 ± 50.9%
- Hill slope (nH) ([4]; α1β1): 1.0±0.4
- EC50 ([4]; α1β1 (α1+/β1− interface)): ~200 nM
- EC50 ([4]; α1β1, co-applied with GABA EC3-5): 220 nM
- EC50 [5]: > 10 µM
- activity at 0.001 µM ([5]; read-out: efficacy, % of control current (GABA EC3-5 = 100%), α4β3γ2, 1 nM): 99.7 ± 2%
- activity at 0.003 µM ([5]; read-out: efficacy, % of control current (GABA EC3-5 = 100%), α4β3γ2, 3 nM): 111%
- activity at 0.01 µM ([5]; read-out: efficacy, % of control current (GABA EC3-5 = 100%), α4β3γ2, 10 nM): 107 ± 3.4%
- activity at 0.03 µM ([5]; read-out: efficacy, % of control current (GABA EC3-5 = 100%), α4β3γ2, 30 nM): 114%
- activity at 0.1 µM ([5]; read-out: efficacy, % of control current (GABA EC3-5 = 100%), α4β3γ2, 100 nM): 122 ± 4.6%
- activity at 1 µM ([5]; read-out: efficacy, % of control current (GABA EC3-5 = 100%), α4β3γ2, 1 µM): 137 ± 6.7%
- activity at 10 µM ([5]; read-out: efficacy, % of control current (GABA EC3-5 = 100%), α4β3γ2, 10 µM): 104 ± 12.6%
- activity at 0.001 µM ([6]; read-out: efficacy, % of control current (GABA EC3-5 = 100%), α1β3, 1 nM): 106 ± 1.9%
- activity at 0.01 µM ([6]; read-out: efficacy, % of control current (GABA EC3-5 = 100%), α1β3, 10 nM): 108 ± 5.1%
- activity at 0.1 µM ([6]; read-out: efficacy, % of control current (GABA EC3-5 = 100%), α1β3, 100 nM): 125 ± 4.6%
- activity at 0.3 µM ([6]; read-out: efficacy, % of control current (GABA EC3-5 = 100%), α1β3, 300 nM): 128 ± 8%
- activity at 3 µM ([6]; read-out: efficacy, % of control current (GABA EC3-5 = 100%), α1β3, 3 µM): 254 ± 28.7%
- Hill slope (nH) ([6]; α1β3): 1.1±0.5
- efficacy, % of control current (GABA EC3-5 = 100%) ([6]; α1β3, 100 nM, 0.1 µM): 117.8±5.9%
- EC50 ([6]; α1β3, co-applied with GABA EC3-5, read-out: EC50): 1470 nM and 2200 nM
- current as % of control at 0.1 µM ([7]; 100nM): 70 ± 1%
- current as % of control at 0.3 µM ([7]; 300nM): 65 ± 6%
- current as % of control at 1 µM ([7]; 1μM): 85 ± 7%
- current as % of control at 3 µM ([7]; 3µM): 100 ± 8%
- current as % of control at 10 µM ([7]; 10μM): 125 ± 5%
- current as % of control at 30 µM ([7]; 30μM): 110 ± 10%
